# Source: patent publication US8455662B2, “Formulations for benzimidazolyl pyridyl ethers” (Novartis AG, priority 2006, dated 2013)
# Test: Aqueous solubility of API at various pHs
# Type: physicochemical
"solubility (aqueous medium, pH 7, aqueous buffer) [µg/mL]",Solubility in water (water),Structure (SMILES)
< 1,–,"Cn1c(Nc2ccc(C(F)(F)F)cc2)nc2cc(Oc3ccnc(-c4ncc(C(F)(F)F)[nH]4)c3)ccc21 [API, {1-methyl-5-[2-(5-trifluoromethyl-1H-imidazol-2-yl)-pyridin-4-yloxy]-1H-benzoimidazol-2-yl}-(4-trifluoromethyl-phenyl)amine]"
–,practically insoluble,Cn1c(Nc2ccc(C(F)(F)F)cc2)nc2cc(Oc3ccnc(-c4ncc(C(F)(F)F)[nH]4)c3)ccc21 [{1-Methyl-5-[2-(5-trifluoromethyl-1H-imidazol-2-yl)-pyridin-4-yloxy]-1H-benzoimidazol-2-yl}-(4-trifluoromethyl-phenyl)amine]
